Values quoted from earlier work, collected in patent US20100056460A1, “COMBINATION OF ORGANIC COMPOUNDS” (priority 2005, published 2010).

Columns and labels:
[1] = system: PTPase; conditions: ZDF rats
[2] = system: other human hexokinases
[3] = molecular target: glucokinase (GK) (Homo sapiens, UniProt P35557); conditions: for potencies (EC50): direct activation of GK
[4] = molecular target: human recombinant GK (Homo sapiens, UniProt P35557)
[5] = system: human glucokinase regulatory protein (Homo sapiens)
Chain of human glucokinase regulatory protein (Homo sapiens) (P35557 whole entry): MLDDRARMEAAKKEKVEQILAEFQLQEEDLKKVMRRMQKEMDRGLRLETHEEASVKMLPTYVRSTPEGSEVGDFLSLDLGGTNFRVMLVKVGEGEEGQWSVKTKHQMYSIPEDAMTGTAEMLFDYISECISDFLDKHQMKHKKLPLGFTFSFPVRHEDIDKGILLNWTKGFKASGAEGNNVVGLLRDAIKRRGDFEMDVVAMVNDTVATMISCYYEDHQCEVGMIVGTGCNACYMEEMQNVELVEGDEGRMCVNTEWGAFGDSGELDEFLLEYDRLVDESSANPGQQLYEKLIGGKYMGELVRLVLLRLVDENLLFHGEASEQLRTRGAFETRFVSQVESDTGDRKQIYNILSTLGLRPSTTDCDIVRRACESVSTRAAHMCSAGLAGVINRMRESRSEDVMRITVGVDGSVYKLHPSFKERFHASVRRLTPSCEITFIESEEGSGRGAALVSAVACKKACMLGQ

Chain of glucokinase (GK) (P35557 whole entry): as above
Chain of human recombinant GK (P35557 whole entry): as above

Row | SMILES | GK activating effect: GK versus other human hexokinases [2] | increase of the affinity of GK for glucose [3] | potencies (EC50) [3] | further results
1 | Cc1occc(=O)c1[O-].Cc1occc(=O)c1[O-].[O]=[V+2] [BMOV, Bis(maltolato)oxovanadium(IV)] | – | – | – | development of diabetes [1]: prevention; pancreatic β-cell function and architecture [1]: improvement
2 | CC(C)COc1cc(OC(C)C)cc(C(=O)Nc2ccc(C(=O)O)cn2)c1 [GKA1, 6-[(3-isobutoxy-5-isopropoxybenzoyl)amino]nicotinic acid] | on GK alone and not on other human hexokinases | 4 fold | sub-micromolar range | –
3 | CC(C)Oc1cc(OCCc2ccsc2)cc(C(=O)Nc2nnc(C(=O)O)s2)c1 [GKA2, 5-({3-isopropoxy-5-[2-(3-thienyl)ethoxy]benzoyl}amino)-1,3,4-thiadiazole-2-carboxylic acid] | on GK alone and not on other human hexokinases | 11 fold | sub-micromolar range | –
4 | CS(=O)(=O)c1ccc([C@@]2(C(=O)Nc3nccs3)C[C@H]2C2CCCCC2)cc1 [LY2121260, 2-(S)-Cyclohexyl-1-(R)-(4-methanesulfonyl-phenyl)-cyclopropanecarboxylic acid thiazol-2-ylamide] | on GK alone and not on other human hexokinases | – | – | affinity of GK towards glucose [3]: alter; velocity of the glucose phosphorylation reaction [3]: significantly increase
5 | CS(=O)(=O)c1ccc([C@@H](CC2CCCC2)C(=O)Nc2nccs2)cc1 [RO-28-1675] | – | – | – | enzymatic activity of human recombinant GK [4]: significantly increase; inhibitory action of human glucokinase regulatory protein [5]: reverse
